Laboratory results reported in PMC9865188 (Pharmaceutics, 2023).
Like-named read-outs stand apart in the source and are kept apart here.

Assays:
[1] = cited from earlier work
Caco-2 cells [2] = test system: Caco-2 cells
Caco-2 cells [3] = test system: Caco-2 cells; remark: listed apart in the source
MDCKII-MDR1 cells = test: Monolayer integrity: lucifer yellow permeability, MDCKII-MDR1 (series 2); details: MDCKII-MDR1, series 2, 100 µM lucifer yellow
Experimental: For (2) and (3), passive permeability was assessed by supplementation of 100 µM lucifer yellow to all donor solutions.
Papp was calculated by dividing the flux with the measured donor concentration.

Molecule: polysorbate 20
- critical micelle concentration (CMC) ([1]; in water, temperatures of 22–40 °C): 11 to 57 µM
- critical micelle concentration (CMC) ([1]; room temperature): 11 to 42 µM

Molecule: OC[C@@H](O)[C@@H](O)[C@H](O)[C@H](O)CO [^3H-mannitol]
- 3H-mannitol permeability (Caco-2 cells [2]): 0.31–1.4 × 10^−6 cm/s

Molecule: lucifer yellow
- Lucifer yellow permeability (Caco-2 cells [3]): 0.15–1.1 × 10^−6 cm/s
- Lucifer yellow permeability (MDCKII-MDR1 cells): 0.39–1.2 × 10^−6 cm/s
